From patent US12310944B2 (priority 2019, dated 2025)
Where two headings read alike, the source gives them in different places.

How the values were obtained:
hBuChE = hBuChE (Homo sapiens, UniProt P06276); experiment: Cholinesterase inhibitory activity (DTNB/BTC), hBuChE; assay type: biochemical; conditions: mean ± SEM
PC-12 neural cell line = experiment: Toxicity test in PC-12 nerve cell (MTT); assay type: cell-based; conditions: PC-12 cells; for SR(%) cell survival rate, 20 μM: 20 μM compound for 24 h; for SR(%) cell survival rate, 50 μM: 50 μM compound for 24 h
Description: Toxicity Test in PC-12 Nerve Cell:
Drugs and reagents: Test compounds, DMEM medium (01-050-1A) purchased from Biological Industries, FBS fetal bovine serum (04-001-1A) purchased from Biological Industries, MTT thiazolyl blue reagent (KGT525500) purchased from KeyGEN BioTECH.
(§1) Instrument: THERMO Varioskan Flash full-wavelength multifunctional microplate reader.
About 3×10^3 PC-12 cells were evenly mixed in 0.1 mL of DMEM medium containing 10% FBS, and plated on a 96-well bottom plate, and incubated overnight at 37° C. in an environment containing 5% CO2. The 20 μM and 50 μM compounds diluted in 0.1 mL of DMEM medium were treated on the cells for 24 hours. Then MTT reagent was added to the well plate, and the plate was incubated at 37° C. for 2 to 4 hours. The color reaction was measured at 492 nm using a spectrophotometer (Thermo, multiskan FC).

[1] = target: T1, eqBuChE (BuChE, E.C.3.1.1.8, selected from horse serum) (Equus caballus, UniProt P81908); experiment: Cholinesterase inhibitory activity (DTNB/BTC), eqBuChE; assay type: biochemical
T1 construct: BuChE (E.C.3.1.1.8, selected from horse serum); purchased Sigma; host or cells: horse serum
Description: Determination of Cholinesterase Inhibitory Activity:
Drugs and reagents: Test compounds, AChE (E.C.3.1.1.7, Type VI-S, selected from electric eel), BuChE (E.C.3.1.1.8, selected from horse serum), 5,5′-dithiobis(2-nitrobenzoic acid) (DTNB), acetylthiocholine (ATC) iodide and butyrylthiocholine (BTC) iodide were all purchased from Sigma; the positive control tacrine hydrochloride (9-amino-1,2,3,4-tetrahydroacridine hydrochloride hydrate) was purchased from BioTrend.
as §1
(1) Formulation of buffer: 13.6 g of potassium dihydrogen phosphate was dissolved in 1 L of water, and pH was adjusted with potassium hydroxide to reach pH=8±0.1. The solution was stored at 4° C. for later use.
(2) Formulation of 0.01 M DTNB solution: 0.396 g of DTNB and 0.15 g of sodium bicarbonate were dissolved in 100 mL of water to prepare a 0.01 M DTNB solution, which was stored at −30° C. for later use.
(3) Formulation of 0.075 M ATC and BTC solutions: 0.217 g of ATC was dissolved in 10 mL of water to prepare a 0.075 M ATC solution, which was stored at −30° C. for later use; 0.237 g of BTC was dissolved in 10 mL of water to prepare a 0.075 M BTC solution, which was stored at −30° C. for later use.
(4) Formulation of AChE and BuChE solutions: 5,000 units of AChE were dissolved in 1 mL of 1% gel solution, and then diluted to 100 mL with water to prepare a AChE solution with a concentration of 5 units/mL, which was stored at −30° C. for later use; 5,000 units of BuChE were dissolved in 1 mL of 1% gel solution, and then diluted to 100 mL with water to prepare a BuChE solution with a concentration of 5 units/mL, which was stored at −30° C. for later use.
(5) Formulation of test substance solution: The test compound was dissolved in ethanol to obtain a solution with a concentration of 10^−3 M (ethanol would not affect the test results), and then diluted with water to prepare solutions with concentrations of […], 10^−5, 10^−6, 10^−7, 10^−8, 10^−9, and 10^−10 M, respectively.
Before the start of the experiment, all the solutions as used were warmed to room temperature, and the AChE and BuChE solutions were diluted 1-fold with water to prepare an enzyme solution with a concentration of 2.5 units/mL. The background UV absorbance was measured with a blank buffer (3 mL) as a subtraction value. Firstly, 100 μL of test compound solution, 100 μL of DTNB solution, and 100 μL of enzyme solution were added to 3 mL of buffer. After adding 20 μL of ATC or BTC solution to trigger the reaction, the time was recorded immediately and the test solution was mixted quickly and uniformly at the same time. After 2 minutes, the UV absorbance was measured at a wavelength of […]. The blank control group was measured with an equal volume of water instead of the test substance solution. All tests were performed three times in parallel. The UV absorption value of the blank control group was taken as 100%, the absorbance (OD value) of the test compound at each concentration was recorded, and GraphPad Prism™ (GraphPad Software, San Diego, CA, USA) software was used to analyze the results in a non-linear regression analysis model to calculate the corresponding IC50 values, as shown in Table 1.

[2] = read-out: IC50 (nM) ± SEM eqBuChE
[3] = eqBuChE, mean ± SEM, three parallel tests

T1 sequence (P81908 whole entry): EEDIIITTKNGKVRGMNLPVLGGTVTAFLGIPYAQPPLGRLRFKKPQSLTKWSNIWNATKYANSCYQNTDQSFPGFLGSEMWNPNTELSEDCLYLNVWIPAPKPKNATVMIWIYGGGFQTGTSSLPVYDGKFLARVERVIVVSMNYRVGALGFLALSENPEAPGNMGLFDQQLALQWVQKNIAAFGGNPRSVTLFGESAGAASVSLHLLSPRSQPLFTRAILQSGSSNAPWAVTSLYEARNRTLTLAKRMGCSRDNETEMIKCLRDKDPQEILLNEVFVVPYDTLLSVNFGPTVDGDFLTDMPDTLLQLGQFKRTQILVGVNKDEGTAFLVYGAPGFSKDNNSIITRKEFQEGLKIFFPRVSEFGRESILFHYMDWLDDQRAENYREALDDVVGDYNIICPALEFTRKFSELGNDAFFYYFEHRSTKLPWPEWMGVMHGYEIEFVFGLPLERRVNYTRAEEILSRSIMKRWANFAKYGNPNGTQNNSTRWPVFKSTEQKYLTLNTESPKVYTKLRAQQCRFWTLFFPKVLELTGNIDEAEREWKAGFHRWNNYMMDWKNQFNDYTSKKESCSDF

CCN(CC)Cc1ccccc1CNC(=O)c1cccc(NC(=O)c2ccc(I)cc2)c1 [Compound 21, 3-(4-iodobenzamido)-N-(2-((diethylamino)methyl)benzyl)benzamide]
IC50 (hBuChE): 3.33 ± 1.62 nM | SR(%) cell survival rate, 20 μM (PC-12 neural cell line): 94.40% | SR(%) cell survival rate, 50 μM (PC-12 neural cell line): 89.63% | IC50 [1, 2]: 1.59 ± 0.26 nM

CCN(CC)Cc1ccccc1CNC(=O)c1cccc(NC(=O)c2ccc(C)cc2)c1 [Compound 22, N-(2-((diethylamino)methyl)benzyl)-3-(4-methylbenzamido)benzamide]
IC50 (hBuChE): 1.54 ± 0.56 nM | SR(%) cell survival rate, 20 μM (PC-12 neural cell line): 93.35% | SR(%) cell survival rate, 50 μM (PC-12 neural cell line): 89.42% | IC50 [1, 2]: 0.98 ± 0.21 nM

CCN(CC)Cc1ccccc1CNC(=O)c1cccc(NC(=O)c2ccc(C)c(C)c2)c1 [Compound 23, N-(3-((2-((diethylamino)methyl)benzyl)carbamoyl)phenyl)-3,4-dimethylbenzamide]
IC50 (hBuChE): 1.53 ± 0.55 nM | SR(%) cell survival rate, 20 μM (PC-12 neural cell line): 85.05% | SR(%) cell survival rate, 50 μM (PC-12 neural cell line): 80.72% | IC50 [1, 2]: 0.8 ± 0.24 nM

CCN(CC)Cc1ccccc1CNC(=O)c1cccc(NC(=O)c2ccc(C(C)C)cc2)c1 [Compound 24]
IC50 (hBuChE): 2.08 ± 0.73 nM | SR(%) cell survival rate, 20 μM (PC-12 neural cell line): 97.02% | SR(%) cell survival rate, 50 μM (PC-12 neural cell line): 86.21% | IC50 [1, 2]: 0.58 ± 0.67 nM

CCN(CC)Cc1ccccc1CNC(=O)c1cccc(NC(=O)c2ccc(C(F)(F)F)cc2)c1 [Compound 25]
IC50 (hBuChE): 1.41 ± 0.01 nM | SR(%) cell survival rate, 20 μM (PC-12 neural cell line): 97.58% | SR(%) cell survival rate, 50 μM (PC-12 neural cell line): 91.57% | IC50 [1, 2]: 0.38 ± 0.1 nM

CCN(CC)Cc1ccccc1CNC(=O)c1cccc(NC(=O)c2ccc(OC)cc2)c1 [Compound 26]
IC50 (hBuChE): 1.04 ± 0.52 nM | SR(%) cell survival rate, 20 μM (PC-12 neural cell line): 97.20% | SR(%) cell survival rate, 50 μM (PC-12 neural cell line): 82.25% | IC50 [1, 3]: 0.55 ± 0.09 nM

CCN(CC)Cc1ccccc1CNC(=O)c1cccc(NC(=O)c2cccc(OC)c2)c1 [Compound 27]
IC50 (hBuChE): 12.8 ± 6.01 nM | SR(%) cell survival rate, 20 μM (PC-12 neural cell line): 91.23% | SR(%) cell survival rate, 50 μM (PC-12 neural cell line): 83.60% | IC50 [1, 2]: 4.91 ± 1.35 nM

CCN(CC)Cc1ccccc1CNC(=O)c1cccc(NC(=O)c2ccccc2OC)c1 [Compound 28]
IC50 (hBuChE): 20 ± 2.06 nM | SR(%) cell survival rate, 20 μM (PC-12 neural cell line): 95.42% | SR(%) cell survival rate, 50 μM (PC-12 neural cell line): 85.46% | IC50 [1, 2]: 5.28 ± 1.21 nM

CCN(CC)Cc1ccccc1CNC(=O)c1cccc(NC(=O)c2ccc(C(=O)OC)cc2)c1 [Compound 29, methyl 4-((3-((2-((diethylamino)methyl)benzyl)carbamoyl)phenyl)carbamoyl)benzoate]
IC50 (hBuChE): 9.06 ± 0.74 nM | SR(%) cell survival rate, 20 μM (PC-12 neural cell line): 99.42% | SR(%) cell survival rate, 50 μM (PC-12 neural cell line): 93.32% | IC50 [1, 2]: 2.48 ± 0.26 nM

CCN(CC)Cc1ccccc1CNC(=O)c1cccc(NC(=O)c2ccc(C(C)=O)cc2)c1 [Compound 30]
IC50 (hBuChE): 24 ± 1.52 nM | SR(%) cell survival rate, 20 μM (PC-12 neural cell line): 91.86% | SR(%) cell survival rate, 50 μM (PC-12 neural cell line): 72.56% | IC50 [1, 3]: 6.63 ± 0.66 nM

CCN(CC)Cc1ccccc1CNC(=O)c1cccc(NC(=O)c2ccc(C#N)cc2)c1 [Compound 31, 3-(4-cyanobenzamido)-N-(2-((diethylamino)methyl)benzyl)benzamide]
IC50 (hBuChE): 16.5 ± 15.1 nM | SR(%) cell survival rate, 20 μM (PC-12 neural cell line): 94.67% | SR(%) cell survival rate, 50 μM (PC-12 neural cell line): 91.59% | IC50 [1, 2]: 15.8 ± 2.84 nM

CCN(CC)Cc1ccccc1CNC(=O)c1cccc(NC(=O)c2ccc([N+](=O)[O-])cc2)c1 [Compound 32]
IC50 (hBuChE): 30.9 ± 3.26 nM | SR(%) cell survival rate, 20 μM (PC-12 neural cell line): 97.42% | SR(%) cell survival rate, 50 μM (PC-12 neural cell line): 84.65% | IC50 [1, 2]: 22.6 ± 0.98 nM

CCN(CC)Cc1ccccc1CNC(=O)c1cccc(NC(=O)c2ccc(N)cc2)c1 [Compound 33]
IC50 (hBuChE): 7.99 ± 2.53 nM | SR(%) cell survival rate, 20 μM (PC-12 neural cell line): 90.21% | SR(%) cell survival rate, 50 μM (PC-12 neural cell line): 74.62% | IC50 [1, 2]: 1.56 ± 0.67 nM

CN(C)Cc1ccccc1CNC(=O)c1cccc(NC(=O)c2cccs2)c1 [Compound 34, N-(3-((2-((dimethylamino)methyl)benzyl)carbamoyl)phenyl)thiophene-2-carboxamide]
IC50 (hBuChE): 0.75 ± 0.27 nM | SR(%) cell survival rate, 20 μM (PC-12 neural cell line): 96.10% | SR(%) cell survival rate, 50 μM (PC-12 neural cell line): 94.5% | IC50 [1, 3]: 0.29 ± 0.05 nM

CCCN(CCC)Cc1ccccc1CNC(=O)c1cccc(NC(=O)c2cccs2)c1 [Compound 35, N-(3-((2-((dipropylamino)methyl)benzyl)carbamoyl)phenyl)thiophene-2-carboxamide]
IC50 (hBuChE): 0.89 ± 0.67 nM | SR(%) cell survival rate, 20 μM (PC-12 neural cell line): 92.58% | SR(%) cell survival rate, 50 μM (PC-12 neural cell line): 84.86% | IC50 [1, 3]: 0.45 ± 0.04 nM

CCN(CC)Cc1cccc(CNC(=O)c2cccc(NC(=O)c3cccs3)c2)c1 [Compound 37, N-(3-((3-((diethylamino)methyl)benzyl)carbamoyl)phenyl)thiophene-2-carboxamide]
IC50 (hBuChE): 32.9 ± 15.7 nM | SR(%) cell survival rate, 20 μM (PC-12 neural cell line): 92.05% | SR(%) cell survival rate, 50 μM (PC-12 neural cell line): 82.03% | IC50 [1, 2]: 12.6 ± 0.86 nM

CCN(CC)Cc1ccc(CNC(=O)c2cccc(NC(=O)c3cccs3)c2)cc1 [Compound 38, N-(3-((4-((diethylamino)methyl)benzyl)carbamoyl)phenyl)thiophene-2-carboxamide]
IC50 (hBuChE): 75 ± 22.9 nM | SR(%) cell survival rate, 20 μM (PC-12 neural cell line): 93.67% | SR(%) cell survival rate, 50 μM (PC-12 neural cell line): 84.23% | IC50 [1, 2]: 24.7 ± 10.6 nM
